Values after ≈ are worked out from the molar mass of the structure shown. Like-named read-outs stand apart in the source and are kept apart here. Marks after values point to notes of the source that are not given here.
Key:
[1] = Distribution coefficient n-octanol/PBS pH 7.4, shake-flask; type: physicochemical; conditions: room temperature, mean ± SD
From the text: Lipophilicity is the key physicochemical parameter that influences solubility and various other aspects of the pharmacokinetic and pharmacodynamic profile of drugs. The hydrophilic-lipophilic behavior of galactosylated prodrugs and parent drugs was investigated by measuring the distribution coefficients (log D^pH) in n-octanol-phosphate buffered saline (PBS, pH 7.4) using the shake-flask technique.
Each log D value is an average of a minimum of six measurements.

[2] = tested on: NSAID-induced gastric damage in mice; test: Ulcerogenicity study (gastric lesion score); type: in vivo, CD1 mice; conditions: fasted mice, oral, parent 10 mg/kg or equimolecular prodrug, score 0 irritation, 1 lesions 1-2 mm, 2 lesions 2-3 mm, 3 lesions >3 mm; for Gastric Lesion Score (4 h): 4 h after treatment; for Gastric Lesion Score (48 h): 48 h after treatment
Description: NSAID-induced gastric damage in mice was evaluated following the procedure described by Chan et al.. […] The mucosa was then examined by means of a magnifying glass for the presence of irritation or frank hemorrhagic lesions (ulcers). Irritation was assigned a score of 0, and ulcerations were scored according to their length (a score of 1 for lesions with a length between 1 and 2 mm, a score of 2 for lesions with a length between 2 and 3 mm, a score of 3 for lesions greater than 3 mm). The sum of total scores was used for comparison.

[3] = Chemical stability in SGF (pH 1.2) and PBS (pH 7.4) at 37 °C; type: physicochemical; conditions: unmodified incubated compound, 100 µM, PBS pH 7.4, 37 °C, mean ± SD
Description: The concentrations of the galactosylated prodrugs and the parent drugs derived from the prodrugs were quantified using RP-HPLC (Table 2).
A 10 mM solution of each compound (the galactosylated prodrugs and their parent drugs) was added to either simulated gastric fluid (SGF-without pepsin) or phosphate-buffered saline (PBS, 50 mM). The SGF and PBS buffers were prepared as previously described.

[4] = Stability in human serum at 37 °C; conditions: for degradation in human serum in 24 h / Stability at 37 °C, % compound after 24 h of incubation, Human Serum: 37 °C; for half-life at 200 µM: male, human; for Stability at 37 °C, % compound after 24 h of incubation, Human Serum: unmodified incubated compound, 200 µM, mean ± SD
Description: A solution of each compound (10 mM in DMSO) was added to human serum (sterile-filtered from human male AB plasma, USA origin, sterile-filtered, Sigma-Aldrich) and preheated and maintained at 37 °C ± 0.5 °C. Three-hundred microliters of the resulting solutions (200 µM) was withdrawn at appropriate time intervals and added to 300 µL of CH3CN, which contained 0.1% TFA, in order to deproteinize the serum. […] Each clear supernatant was filtered using 0.45 µm PTFE filters (VWR International S.r.l., Milano, Italy) and analyzed via RP-HPLC as described below.
The reverse-phase HPLC procedure allowed the galactosylated prodrugs and their parent drugs to be separated and quantified. […] The analytical column was a ZORBAX Eclipse XDB-C8 (150 × 4.6 mm, 5 µm; Agilent, Santa Clara, CA, USA). The mobile phase consisted of 0.1% aqueous TFA and 0.1% TFA CH3CN 50/50 w/w% at a flow rate of 1.0 mL/min. The injection volume was 20 µL (Rheodyne, Cotati, CA, USA). The column effluent was monitored at 228 nm and 254 nm, referenced against an 800 nm wavelength. The quantitation of compounds was calculated using calibration curves and the linearity of the calibration curves was determined in a concentration range of 1–100 µM (r^2 > 0.99).

[5] = tested on: carrageenan-induced paw edema in mice; test: Carrageenan-induced paw edema / hyperalgesia; type: in vivo, CD1 mice; conditions: oral; parent drugs 10 mg/kg, equimolecular IbuGAL 17.8, IndoGAL 14.5, OkyGAL 16.4, FluGAL 16.7 mg/kg
Description: We tested the anti-inflammatory response of the parent drugs and their relative galactosylated prodrugs by subcutaneously injecting λ-carrageenan (1% (w/v) in sterile saline, 20 μL) into the hind paws of mice.
Figure 4 (a–d). […] White circles represent control mice treated with vehicle. […] The increase in paw volume was evaluated and is expressed as the difference in paw volume measured at each time point and the basal paw volume measured immediately before carrageenan injection. Data are expressed as means ± S.E.M. of 6 animals. *** p < 0.001, ** p < 0.01 and […] vs. Control.
Carrageenan-induced paw edema was induced by injecting λ-carrageenan (1% w/v in sterile water, 20 μL) subcutaneously into the hind paws of mice using a 27 gauge needle. […] The increase in paw volume was evaluated using a plethysmometer (Ugo Basile, Milan, Italy) and reported as the difference between the paw volume measured at each time point and the basal paw volume measured immediately before carrageenan injection.

[6] = Serum protein binding by ultrafiltration; type: in vitro ADME; conditions: male, human serum, 1 h at 37 °C, mean ± SD, read-out: Serum Protein Binding % Bound (converted)
Description: The serum protein binding properties of the galactosylated prodrugs and parent drugs were investigated using ultrafiltration. The compounds were incubated in human serum, and after 1 h, the concentrations of the compounds in the ultrafiltrate and the original serum were determined by means of RP-HPLC, and used to calculate the binding percentages, which are reported in Table 2.
Free- and protein-bound drug separation was obtained via ultrafiltration using commercially available membrane systems (Centrifree ultrafiltration devices with ultracel YM-T membrane, Merck, KGaA, Darmstadt, Germany). […] One milliliter of the solution was inserted into the sample reservoir of the ultrafiltration device and gently shaken in an orbital shaker for 1 h at 37 °C. […] The concentration of the compound both in the ultrafiltrate and filtrate was analyzed via RP-HPLC under the chromatographic conditions described above and using the calibration curves of standard solutions. […] The recovery of the ultrafiltration process was calculated to observe any possible compound loss during the operations in view of the limited solubility of the tested compounds.

[7] = Solubility assay at 25 °C (RP-HPLC); type: physicochemical; conditions: thermodynamic from solid
Description: The solubilities of the prodrugs and parent drugs were evaluated at 25 °C in water, simulated gastric fluid (SGF without pepsin, pH 1.2) and PBS (pH 7.4), which are the media used for chemical stability analyses. The solubilities were quantified using RP-HPLC.
Solubility was assessed in deionized water, SGF without pepsin (pH 1.2) and PBS (pH 7.4, 50 mM). The test solid compounds (5 mg) were added to 1 mL of water, PBS and SGF in glass tubes and shaken for 6 h at 25 °C. The suspensions were filtered through a PTFE 0.45 μm filter (VWR), and the resulting solutions were analyzed by means of RP-HPLC (see below). Experiments were performed in triplicate for each compound. Solubility is expressed as mM concentration.

[8] = aqueous buffer, PBS pH 7.4 50 mM, 25 °C, read-out: Solubility at 25 °C, PBS pH 7.4
[9] = simulated gastric fluid, SGF without pepsin pH 1.2, 25 °C, LOQ (HPLC) = 1 µM, read-out: Solubility at 25 °C, SGF pH 1.2
[10] = deionized water, 6 h shaking, 25 °C, mean, SD < 0.01, read-out: Solubility at 25 °C, Water

Row | logD [1] | Stability at 37 °C, % compound after 24 h of incubation, PBS pH 7.4 [3] [%] | degradation in human serum in 24 h [4] [%] | half-life at 200 µM [4] [min] | Stability at 37 °C, % compound after 24 h of incubation, Human Serum [4] [%] | fraction unbound at 1 h, 100 µM [6] | solubility at 6 h [7, 8] [µM] | solubility at 6 h [7, 9] [µM] | solubility at 6 h [7, 10] [µM] | SMILES | Gastric Lesion Score (4 h) [2] | Gastric Lesion Score (48 h) [2] | effect on carrageenan-induced paw edema/hyperalgesia during the first phase (0–6 h) [5]
1 | 1.89 ± 0.09 | 87.3 ± 2.1 | ~50 | ~1440 | 57.3 ± 1.4 | 0.039 | 1010 (≈ 410 µg/mL) | 1440 (≈ 585 µg/mL) | 5210 (≈ 2120 µg/mL) | CC(C(=O)OC[C@H]1OC(O)[C@H](O)[C@@H](O)[C@H]1O)c1ccc(-c2ccccc2)c(F)c1 (stereo partly drawn) [FluGAL] | 0 ** | 0.5 | did not change
2 | 1.73 ± 0.04 | 81.2 ± 2.5 | ~50 | ~1440 | 54.1 ± 2.2 | 0.028 | 2930 (≈ 1080 µg/mL) | 2530 (≈ 932 µg/mL) | 1940 (≈ 715 µg/mL) | CC(C)Cc1ccc(C(C)C(=O)OC[C@H]2OC(O)[C@H](O)[C@@H](O)[C@H]2O)cc1 (stereo partly drawn) [IbuGAL] | 0 ** | 1 | did not change
